Results on three compounds are retold here after ChEMBL document CHEMBL3399986, “Rapid 'one-pot' synthesis of a novel benzimidazole-5-carboxylate and its hydrazone derivatives as potential anti-inflammatory and antimicrobial agents” (Bioorg Med Chem Lett, 2015).

For series [1], the system named is MDA-MB-231. The series can be described thus: Cytotoxicity against human MDA-MB-231 cells assessed as cell death at 1 ug/ml after 48 hrs by MTT assay. The settings on record: mda-mb-231, 48 h. In kind it is cell-based. For orientation: Formazan colour is commonly taken as a measure of viable cells.
In series [2] the test system is Bacillus subtilis. The series can be described thus: Antimicrobial activity against Bacillus subtilis MTCC 441 assessed as zone of inhibition at 5 mg/ml after 24 hrs by agar well diffusion method. To be noted: MTCC 441, 24 h, read-out: IZ. It counts as functional.
The test system of series [3] is Aspergillus niger. The series can be described thus: Antifungal activity against Aspergillus niger MTCC 282 assessed as zone of inhibition at 5 mg/ml after 24 hrs by agar well diffusion method. It counts as functional. To be noted: MTCC 282, 24 h, read-out: IZ. Background: In agar diffusion tests the substance spreads into inoculated agar from a disc or well.
In series [4] the test system is Penicillium chrysogenum. The series is described as follows: Antifungal activity against Penicillium notatum after 48 hrs by broth dilution method. It counts as functional.
Series [5] deals with Klebsiella pneumoniae. The series is described as follows: Antimicrobial activity against Klebsiella pneumoniae MTCC 3384 after 24 hrs by broth dilution method. In kind it is functional. To be noted: MTCC 3384, 24 h. For orientation: Dilution methods test growth across graded concentrations, often in twofold steps.
Series [6] concerns Escherichia coli. The series is described as follows: Antimicrobial activity against Escherichia coli MTCC 4351 assessed as zone of inhibition at 5 mg/ml after 24 hrs by agar well diffusion method. In kind it is functional. The settings on record: MTCC 4351, 24 h, read-out: IZ.
In series [7] the test system is Klebsiella pneumoniae. The series is described as follows: Antimicrobial activity against Klebsiella pneumoniae MTCC 3384 assessed as zone of inhibition at 5 mg/ml after 24 hrs by agar well diffusion method. It counts as functional. The settings on record: MTCC 3384, 24 h, read-out: IZ.
Series [8] has as its system Bacillus subtilis. The series is described as follows: Antimicrobial activity against Bacillus subtilis MTCC 441 after 24 hrs by broth dilution method. In kind it is functional. The settings on record: MTCC 441, 24 h.
For series [9], the system named is Candida albicans. The series is described as follows: Antifungal activity against Candida albicans MTCC 461 assessed as zone of inhibition at 5 mg/ml after 24 hrs by agar well diffusion method. To be noted: MTCC 461, 24 h, read-out: IZ. It counts as functional.
Series [10] relates to Rattus norvegicus. The series is described as follows: Antiinflammatory activity in rat assessed as inhibition of carrageenan-induced paw edema administered 30 mins prior to carrageenan challenge measured after 1 hr relative to control. It counts as functional.
The subject of series [11] is Candida albicans. The series can be described thus: Antifungal activity against Candida albicans MTCC 461 after 48 hrs by broth dilution method. It counts as functional. To be noted: MTCC 461, 48 h.
The test system of series [12] is Rattus norvegicus. The series can be described thus: Antiinflammatory activity in rat assessed as inhibition of carrageenan-induced paw edema administered 30 mins prior to carrageenan challenge measured after 2 hrs relative to control. In kind it is functional.
Series [13] relates to Escherichia coli. The series can be described thus: Antimicrobial activity against Escherichia coli MTCC 4351 after 24 hrs by broth dilution method. In kind it is functional. The settings on record: MTCC 4351, 24 h.
For series [14], the system named is MDA-MB-231. The series is described as follows: Cytotoxicity against human MDA-MB-231 cells assessed as cell death at 2.5 ug/ml after 48 hrs by MTT assay. To be noted: mda-mb-231, 48 h. It counts as cell-based.
Series [15] concerns Aspergillus niger. The series can be described thus: Antifungal activity against Aspergillus niger MTCC 282 after 48 hrs by broth dilution method. In kind it is functional. The settings on record: MTCC 282, 48 h.
Series [16] has as its system Staphylococcus aureus. The series is described as follows: Antimicrobial activity against Staphylococcus aureus MTCC 3160 after 24 hrs by broth dilution method. The settings on record: MTCC 3160, 24 h. In kind it is functional.
Series [17] has as its system MDA-MB-231. The series can be described thus: Cytotoxicity against human MDA-MB-231 cells assessed as cell death at 5 ug/ml after 48 hrs by MTT assay. It counts as cell-based. To be noted: mda-mb-231, 48 h.
Series [18] deals with MDA-MB-231. The series can be described thus: Cytotoxicity against human MDA-MB-231 cells assessed as cell death at 10 ug/ml after 48 hrs by MTT assay. It counts as cell-based. The settings on record: mda-mb-231, 48 h.
Series [19] relates to Staphylococcus aureus. The series can be described thus: Antimicrobial activity against Staphylococcus aureus MTCC 3160 assessed as zone of inhibition at 5 mg/ml after 24 hrs by agar well diffusion method. In kind it is functional. The settings on record: MTCC 3160, 24 h, read-out: IZ.
In series [20] the test system is Rattus norvegicus. The series can be described thus: Antiinflammatory activity in rat assessed as inhibition of carrageenan-induced paw edema administered 30 mins prior to carrageenan challenge measured after 3 hrs relative to control. It counts as functional.
Series [21] has as its system Candida tropicalis. The series is described as follows: Antifungal activity against Candida tropicalis MTCC 183 after 48 hrs by broth dilution method. It counts as functional. The settings on record: MTCC 183, 48 h.
The subject of series [22] is Penicillium chrysogenum. The series is described as follows: Antifungal activity against Penicillium notatum assessed as zone of inhibition at 5 mg/ml after 24 hrs by agar well diffusion method. The settings on record: read-out: IZ. It counts as functional.
For series [23], the system named is Candida tropicalis. The series can be described thus: Antifungal activity against Candida tropicalis MTCC 183 assessed as zone of inhibition at 5 mg/ml after 24 hrs by agar well diffusion method. It counts as functional. The settings on record: MTCC 183, 24 h, read-out: IZ.

Converted amounts (≈) assume the structure as drawn.

In general, MIC refers to the lowest concentration found to suppress growth. With `CCCn1c(-c2ccc(Cl)cc2Cl)nc2cc(C(=O)N/N=C/c3ccccc3Cl)ccc21`, the Activity is reported as -2.05% in the series on MDA-MB-231 [1], -0.44% with MDA-MB-231 [14], 1.61% with MDA-MB-231 [17] and 2.78% in the series with MDA-MB-231 [18]. Also, the zone of inhibition at 5000 µg/mL amounted to 16 mm in the series on Bacillus subtilis [2]; 21 mm with Aspergillus niger [3]; 18 mm in the series on Escherichia coli [6]; 17 mm with Klebsiella pneumoniae [7]; 17 mm in the series with Candida albicans [9]; 15 mm in the series on Staphylococcus aureus [19]. The zone of inhibition at 5000 µg/mL with Penicillium chrysogenum [22] turned out to be 15 mm; in the series on Candida tropicalis [23], 18 mm. Moreover, the MIC in the series on Penicillium chrysogenum [4] turned out to be 12.5 mg/L (≈ 25.7 µM); in the series with Klebsiella pneumoniae [5] it was 25 mg/L (≈ 51.5 µM); in the series with Bacillus subtilis [8], 25 mg/L (≈ 51.5 µM); with Candida albicans [11] it was 12.5 mg/L (≈ 25.7 µM); against Escherichia coli [13], 12.5 mg/L (≈ 25.7 µM); in the series with Aspergillus niger [15], 6.25 mg/L (≈ 12.9 µM). For the same compound, the minimal inhibitory concentration (MIC) in the series with Staphylococcus aureus [16] was determined as 25 mg/L (≈ 51.5 µM); against Candida tropicalis [21], 6.25 mg/L (≈ 12.9 µM). In addition, the “inhibition (INH)” value with Rattus norvegicus [10] worked out at 65.55%; with Rattus norvegicus [12], 70.62%; with Rattus norvegicus [20], 71.97%.

For `CCCn1c(-c2ccc(Cl)cc2Cl)nc2cc(C(=O)N/N=C/c3cc(Br)ccc3O)ccc21`, the Activity is on record as -6.58% with MDA-MB-231 [1], -6.21% in the series on MDA-MB-231 [14], 0.07% in the series on MDA-MB-231 [17] and 4.46% in the series on MDA-MB-231 [18]. Moreover, the zone of inhibition at 5000 µg/mL with Bacillus subtilis [2] stood at 22 mm; in the series with Aspergillus niger [3], 22 mm; in the series on Escherichia coli [6], 22 mm; in the series with Klebsiella pneumoniae [7], 20 mm; in the series on Candida albicans [9] it was 21 mm; in the series on Staphylococcus aureus [19], 22 mm. Also, the zone of inhibition at 5000 µg/mL with Penicillium chrysogenum [22] and in the series on Candida tropicalis [23] was 18 mm throughout. In addition, the minimal inhibitory concentration (MIC) is 6.25 mg/L (≈ 11.4 µM) against Penicillium chrysogenum [4]; 6.25 mg/L (≈ 11.4 µM) against Klebsiella pneumoniae [5]; 3.12 mg/L (≈ 5.71 µM) against Bacillus subtilis [8]; 3.12 mg/L (≈ 5.71 µM) against Candida albicans [11]; 3.12 mg/L (≈ 5.71 µM) against Escherichia coli [13]; 3.12 mg/L (≈ 5.71 µM) with Aspergillus niger [15]. Further, the minimum inhibitory concentration (MIC) worked out at 3.12 mg/L (≈ 5.71 µM) in the series with Staphylococcus aureus [16] and 6.25 mg/L (≈ 11.4 µM) against Candida tropicalis [21]. In addition, the “inhibition (INH)” value with Rattus norvegicus [10] is 44.81%; with Rattus norvegicus [12], 47.41%; in the series with Rattus norvegicus [20], 45.98%.

Regarding `CCCn1c(-c2ccc(Cl)cc2Cl)nc2cc(C(=O)N/N=C/c3cccc(Br)c3)ccc21`, the Activity with MDA-MB-231 [1] was -12.5%; with MDA-MB-231 [14], -1.17%; in the series on MDA-MB-231 [17] it was -2.12%; in the series with MDA-MB-231 [18] it was 7.46%. The zone of inhibition at 5000 µg/mL in the series on Bacillus subtilis [2] came out at 12 mm; with Aspergillus niger [3], 22 mm; in the series on Escherichia coli [6] it was 18 mm; with Klebsiella pneumoniae [7] it was 17 mm; in the series with Candida albicans [9] it was 16 mm; in the series on Staphylococcus aureus [19] it was 18 mm. In addition, the results for the zone of inhibition at 5000 µg/mL in the series on Penicillium chrysogenum [22] and with Candida tropicalis [23] were 15 mm and 16 mm, respectively. For the same compound, the MIC came out at 25 mg/L (≈ 47.1 µM) in the series on Penicillium chrysogenum [4]; 25 mg/L (≈ 47.1 µM) in the series on Klebsiella pneumoniae [5]; 50 mg/L (≈ 94.3 µM) with Bacillus subtilis [8]; 12.5 mg/L (≈ 23.6 µM) against Candida albicans [11]; 12.5 mg/L (≈ 23.6 µM) in the series on Escherichia coli [13]; 3.12 mg/L (≈ 5.88 µM) in the series with Aspergillus niger [15]. The MIC stood at 6.25 mg/L (≈ 11.8 µM) against Staphylococcus aureus [16] and 12.5 mg/L (≈ 23.6 µM) against Candida tropicalis [21]. Further, the “inhibition (INH)” value with Rattus norvegicus [10] is 65.18%; in the series with Rattus norvegicus [12], 58.04%; in the series on Rattus norvegicus [20] it was 72.11%.
